In brackets after ≈: the same amount, converted by molar mass. Several values for one entry are separate records, joined by “and”; a condition that tells them apart may be missing. Identical values can stand only once.
Experiments:
Experiment in all cases: ≥ marks a high value that may be exact or a test limit, other limits are often not marked, values filed in µg/mL are converted to µM
[1] = system: Escherichia coli ATCC 10536
[2] = system: Staphylococcus aureus ATCC 9144
[3] = system: Bacillus subtilis ATCC 6633
[4] = system: Escherichia coli DH5alpha
[5] = system: Staphylococcus aureus M838-17
[6] = system: Klebsiella pneumoniae E406-17
[7] = system: Pseudomonas aeruginosa PAO1
[8] = system: Pseudomonas aeruginosa E411-17
[9] = system: Enterococcus faecium V286-17
[10] = system: Staphylococcus aureus USA 300
[11] = system: Escherichia coli ATCC 25922
[12] = system: Staphylococcus aureus JE2
[13] = system: Klebsiella pneumoniae ATCC 13883
[14] = system: Escherichia coli E416-7
[15] = system: Staphylococcus aureus
[16] = system: Vibrio alginolyticus
[17] = system: Shigella flexneri
[18] = system: Pseudomonas aeruginosa
[19] = system: Candida albicans
[20] = system: Escherichia coli
[21] = system: Bacillus cereus
[22] = system: Aeromonas hydrophila
[23] = system: Bacillus subtilis
[24] = system: Cryptococcus neoformans
[25] = system: Staphylococcus epidermidis
[26] = system: Vibrio parahaemolyticus
[27] = system: Corynebacterium glutamicum
[28] = system: Bacillus subtilis 168 HT
[29] = system: Escherichia coli MG1655
[30] = system: Klebsiella pneumoniae DSM 681
[31] = system: Escherichia coli DSM 1103
[32] = system: Streptococcus pneumoniae DSM 11865
[33] = system: Escherichia coli UB1005
[34] = system: Pseudomonas aeruginosa DSM 1128
[35] = system: Pseudomonas aeruginosa H374
[36] = system: Staphylococcus aureus ATCC 25923
[37] = system: Salmonella enterica subsp. enterica serovar Typhimurium ATCC 14028s
[38] = system: Pseudomonas aeruginosa H744
[39] = system: Burkholderia cepacia ATCC 25416
[40] = system: Pseudomonas aeruginosa K799
[41] = system: Pseudomonas aeruginosa Z61
[42] = system: Pseudomonas aeruginosa H547
[43] = system: Sporothrix schenckii
[44] = system: Escherichia coli ATCC 9637
[45] = system: Trichophyton mentagrophytes
[46] = system: Aspergillus fumigatus
[47] = system: Klebsiella pneumoniae ATCC 27736
[48] = system: Candida parapsilosis ATCC 22019
[49] = system: Pseudomonas aeruginosa ATCC BAA-427

Work on `CC[C@H](C)[C@H](NC(=O)CN)C(=O)NCC(=O)N[C@@H](C)C(=O)N[C@H](C(=O)N[C@@H](CC(C)C)C(=O)N[C@@H](CCCCN)C(=O)N[C@H](C(=O)N[C@@H](C)C(=O)N[C@H](C(=O)N[C@H](C(=O)NCC(=O)N[C@@H](C)C(=O)N1CCC[C@H]1C(=O)N[C@@H](C)C(=O)N[C@@H](CC(C)C)C(=O)N[C@H](C(=O)N[C@@H](CO)C(=O)N[C@@H](Cc1c[nH]c2ccccc12)C(=O)N[C@H](C(=O)N[C@@H](CCCCN)C(=O)N[C@@H](CCCN=C(N)N)C(=O)N[C@@H](CCCCN)C(=O)N[C@@H](CCCN=C(N)N)C(=O)N[C@@H](CCC(N)=O)C(=O)N[C@@H](CCC(N)=O)C(N)=O)[C@@H](C)CC)[C@@H](C)CC)[C@@H](C)O)[C@@H](C)O)C(C)C)C(C)C` [GIGAVLKVATTGAPALISWIKRKRQQ] yielded an MIC [1] of 4.5 µM (≈ 12.4 µg/mL), an MIC [2] of 20 µM (≈ 55.2 µg/mL) and an MIC [3] of 20 µM (≈ 55.2 µg/mL). It also gave an MIC [4] of 4.3 µM (≈ 11.9 µg/mL).

In the case of `CC(C)C[C@H](NC(=O)[C@H](CC(C)C)NC(=O)[C@H](CCCCN)NC(=O)[C@H](CC(C)C)NC(=O)CNC(=O)[C@H](CC(C)C)NC(=O)[C@H](CO)NC(=O)[C@H](CC(C)C)NC(=O)[C@H](CC(C)C)NC(=O)[C@H](CC(C)C)NC(=O)[C@H](CCCCN)NC(=O)[C@H](CC(C)C)NC(=O)CN)C(N)=O` [GLKLLLSLGLKLL], the MIC [5] is reported as 2.25 µM (≈ 3.1 µg/mL), the MIC [6] is reported as ≥ 50 µM and the MIC [7] is reported as > 25 µM. The MIC [8] was ≥ 50 µM, the MIC [9] was 4.4 µM (≈ 6.07 µg/mL) and the MIC [10] was 1.6 µM and 3.1 µM and 4.4 µM. For the same molecule, the MIC [11] was > 25 µM, the MIC [12] was 1.13 µM (≈ 1.56 µg/mL) and the MIC [13] was 25 µM (≈ 34.5 µg/mL). The MIC [14] was ≥ 50 µM.

For `CC[C@H](C)[C@H](NC(=O)[C@H](CC(C)C)NC(=O)[C@H](CCC(=O)O)NC(=O)[C@@H]1CCCN1C(=O)[C@H](CC(C)C)NC(=O)[C@H](Cc1cnc[nH]1)NC(=O)[C@@H](NC(=O)[C@H](CCCCN)NC(=O)[C@@H](NC(=O)[C@H](Cc1ccccc1)NC(=O)[C@H](CCCCN)NC(=O)[C@H](CCCN=C(N)N)NC(=O)[C@H](CS)NC(=O)[C@H](CC(C)C)NC(=O)[C@H](CO)NC(=O)[C@H](CCCCN)NC(=O)[C@H](CC(C)C)NC(=O)[C@H](CC(C)C)NC(=O)CN)C(C)C)C(C)C)C(=O)N[C@@H](CCC(=O)O)C(=O)N[C@@H](CCC(=O)O)C(=O)N[C@@H](CC(C)C)C(=O)N[C@H](C(=O)N[C@H](C(=O)N[C@H](C(=O)N[C@@H](CC(=O)O)C(=O)O)[C@@H](C)O)[C@@H](C)O)[C@@H](C)O` [GLLKSLCRKFVKVHLPELIEELTTTD], the MIC [15] was > 50 µM, the MIC [16] was ≥ 50 µM and the MIC [17] was ≥ 50 µM. For the same molecule, the MIC [18] was > 50 µM, the MIC [19] was > 50 µM and the MIC [20] was 35.4 µM (≈ 105 µg/mL). For the same molecule, the MIC [21] was ≥ 50 µM, the MIC [22] was ≥ 50 µM and the MIC [23] was ≥ 50 µM. For the same molecule, the MIC [24] was ≥ 50 µM, the MIC [25] was ≥ 50 µM and the MIC [26] was ≥ 50 µM. For the same molecule, the MIC [27] was 8.84 µM (≈ 26.4 µg/mL).

`CC[C@H](C)[C@H](N)C(=O)N[C@@H](CO)C(=O)N[C@@H](CCCN=C(N)N)C(=O)N[C@@H](C)C(=O)N[C@@H](CS)C(=O)N[C@@H](CC(C)C)C(=O)N[C@H](C(=O)N[C@@H](CCSC)C(=O)N[C@@H](CCCCN)C(=O)N[C@H](C(=O)N[C@@H](CCCN=C(N)N)C(=O)N[C@@H](CCCN=C(N)N)C(=O)N[C@@H](CCCCN)C(=O)N[C@@H](CCCCN)C(=O)O)C(C)C)[C@@H](C)CC` [ISRACLIMKVRRKK] was tested, and the MIC [28] was 9.4 µM (≈ 16 µg/mL) and the MIC [29] was ≥ 37.6 µM.

`CC[C@H](C)[C@H](NC(=O)CNC(=O)[C@@H](NC(=O)[C@H](CCCCN)NC(=O)[C@H](CCCCN)NC(=O)[C@H](Cc1ccccc1)NC(=O)[C@H](CC(C)C)NC(=O)[C@H](CCCCN)NC(=O)[C@H](Cc1c[nH]c2ccccc12)NC(=O)[C@@H](N)CCCCN)[C@@H](C)CC)C(=O)NCC(=O)N[C@@H](C)C(=O)N[C@H](C(=O)N[C@@H](CC(C)C)C(=O)N[C@@H](CCCCN)C(=O)N[C@H](C(=O)N[C@@H](CC(C)C)C(=O)N[C@H](C(=O)N[C@H](C(=O)NCC(=O)N[C@@H](CC(C)C)C(=O)N1CCC[C@H]1C(=O)N[C@@H](C)C(=O)N[C@@H](CC(C)C)C(=O)N[C@@H](CCCCN)C(=O)N[C@@H](CC(C)C)C(=O)N[C@H](C(=O)N[C@@H](CCCCN)C(=O)O)[C@@H](C)O)[C@@H](C)O)[C@@H](C)O)C(C)C)C(C)C` [KWKLFKKIGIGAVLKVLTTGLPALKLTK] showed an MIC [30] of 2.04 µM (≈ 6.25 µg/mL), an MIC [31] of 2.04 µM (≈ 6.25 µg/mL) and an MIC [32] of 2.04 µM (≈ 6.25 µg/mL). The MIC [33] was 0.652 µM (≈ 2 µg/mL), the MIC [34] was 1.02 µM (≈ 3.13 µg/mL) and the MIC [35] was 0.652 µM (≈ 2 µg/mL). It also gave an MIC [36] of 2.04 µM (≈ 6.25 µg/mL), an MIC [37] of 0.979 µM (≈ 3 µg/mL) and an MIC [38] of 0.652 µM (≈ 2 µg/mL). It also gave an MIC [39] of 20.9 µM (≈ 64 µg/mL), an MIC [40] of 0.979 µM (≈ 3 µg/mL) and an MIC [41] of 0.652 µM (≈ 2 µg/mL). It also gave an MIC [42] of 1.3 µM (≈ 4 µg/mL).

For `CC(C)C[C@H](NC(=O)[C@H](CC(C)C)NC(=O)[C@H](CCCN=C(N)N)NC(=O)[C@H](CCCN=C(N)N)NC(=O)[C@H](C)NC(=O)[C@H](Cc1c[nH]c2ccccc12)NC(=O)[C@H](CCCN=C(N)N)NC(=O)[C@H](C)NC(=O)[C@H](C)NC(=O)[C@H](CCCN=C(N)N)NC(=O)[C@H](CCCN=C(N)N)NC(=O)[C@@H](N)CC(C)C)C(=O)N[C@@H](CCCN=C(N)N)C(=O)N[C@@H](CCCN=C(N)N)C(=O)O` [LRRAARWARRLLRR], the MIC [43] was 6.76 µM (≈ 12.5 µg/mL), the MIC [44] was 13.5 µM (≈ 25 µg/mL) and the MIC [45] was ≥ 54 µM. For the same molecule, the MIC [21] was 1.7 µM (≈ 3.15 µg/mL), the MIC [46] was 27 µM (≈ 50 µg/mL) and the MIC [36] was 1.7 µM (≈ 3.15 µg/mL). It also gave an MIC [47] of 3.38 µM (≈ 6.25 µg/mL), an MIC [48] of 6.76 µM (≈ 12.5 µg/mL) and an MIC [49] of 13.5 µM (≈ 25 µg/mL).

Reference: DBAASP
